Columns and labels:
Type in all cases: binding
Conditions in all cases: Compound Concentration 10 µM
panel of 442 kinases [1] = biological target: T1, panel of 442 kinases (Homo sapiens, UniProt P53350)
T1 construct: purchased KINOMEscan
From the text: (§1) We assessed the selectivity of members of this scaffold using the KINOMEscan methodology across a near comprehensive panel of 442 kinases [[18,27]].

panel of 442 kinases [2] = biological target: T2, panel of 442 kinases (Homo sapiens, UniProt Q13546)
T2 construct: purchased KINOMEscan
T2 sequence (Q13546 1-671): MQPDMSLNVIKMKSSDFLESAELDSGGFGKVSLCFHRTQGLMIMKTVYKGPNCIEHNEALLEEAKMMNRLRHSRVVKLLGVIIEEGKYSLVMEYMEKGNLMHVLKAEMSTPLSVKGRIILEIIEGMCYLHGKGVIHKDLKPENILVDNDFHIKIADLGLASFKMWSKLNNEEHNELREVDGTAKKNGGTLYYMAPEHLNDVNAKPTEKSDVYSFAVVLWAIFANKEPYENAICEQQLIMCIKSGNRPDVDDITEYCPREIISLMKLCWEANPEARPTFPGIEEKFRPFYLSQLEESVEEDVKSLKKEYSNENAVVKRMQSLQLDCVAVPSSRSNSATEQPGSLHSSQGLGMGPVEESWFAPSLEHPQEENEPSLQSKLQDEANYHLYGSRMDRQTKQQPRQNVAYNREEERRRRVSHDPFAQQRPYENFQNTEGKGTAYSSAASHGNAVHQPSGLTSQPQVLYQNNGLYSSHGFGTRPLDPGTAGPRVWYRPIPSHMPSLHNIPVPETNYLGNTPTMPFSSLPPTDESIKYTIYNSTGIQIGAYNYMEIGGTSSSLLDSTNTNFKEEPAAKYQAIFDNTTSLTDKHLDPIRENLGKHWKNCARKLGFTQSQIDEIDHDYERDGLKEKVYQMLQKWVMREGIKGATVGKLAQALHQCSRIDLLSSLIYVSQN
From the text: as §1

panel of 442 kinases [3] = biological target: T3, panel of 442 kinases (Homo sapiens, UniProt Q9HC98)
T3 construct: purchased KINOMEscan
T3 sequence (Q9HC98 whole entry): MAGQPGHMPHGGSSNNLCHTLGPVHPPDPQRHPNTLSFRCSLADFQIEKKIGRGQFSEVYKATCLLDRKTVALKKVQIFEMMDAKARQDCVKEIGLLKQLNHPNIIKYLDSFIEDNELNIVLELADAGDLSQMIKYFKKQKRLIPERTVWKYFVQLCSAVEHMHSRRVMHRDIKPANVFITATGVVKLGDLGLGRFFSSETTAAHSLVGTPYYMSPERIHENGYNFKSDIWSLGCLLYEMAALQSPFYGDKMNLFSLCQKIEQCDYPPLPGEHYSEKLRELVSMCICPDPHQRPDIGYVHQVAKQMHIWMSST
From the text: as §1

T1 sequence (P53350 whole entry): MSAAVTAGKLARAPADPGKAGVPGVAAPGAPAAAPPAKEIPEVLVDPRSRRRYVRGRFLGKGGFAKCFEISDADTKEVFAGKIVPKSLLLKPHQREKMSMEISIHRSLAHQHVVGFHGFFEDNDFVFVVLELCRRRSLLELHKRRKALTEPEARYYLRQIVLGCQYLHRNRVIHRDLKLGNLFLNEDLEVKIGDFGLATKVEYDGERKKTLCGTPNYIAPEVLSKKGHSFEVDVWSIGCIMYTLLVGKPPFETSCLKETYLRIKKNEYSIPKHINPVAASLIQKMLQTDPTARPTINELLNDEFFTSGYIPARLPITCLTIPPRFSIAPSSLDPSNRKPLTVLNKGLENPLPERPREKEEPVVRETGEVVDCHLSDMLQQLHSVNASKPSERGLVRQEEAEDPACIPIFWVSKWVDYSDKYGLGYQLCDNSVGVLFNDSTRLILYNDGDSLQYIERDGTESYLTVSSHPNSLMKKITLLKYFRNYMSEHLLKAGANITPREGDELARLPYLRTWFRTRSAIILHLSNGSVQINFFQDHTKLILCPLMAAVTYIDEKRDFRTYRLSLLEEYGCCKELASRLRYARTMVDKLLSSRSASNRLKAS

SMILES | KINOMEscan: PLK1 (panel of 442 kinases [1]) | KINOMEscan: RIPK1 (panel of 442 kinases [2]) | KINOMEscan: NEK6 (panel of 442 kinases [3])
COc1cc(C(=O)N2CCC(N3CCN(C)CC3)CC2)ccc1Nc1ncc2c(n1)N(C1CCCC1)c1ccccc1C(=O)N2C [Compound 25, 11-cyclopentyl-2-((2-methoxy-4-(4-(4-methylpiperazin-1-yl)piperidine-1-carbonyl)phenyl)amino)-5-methyl-5H-benzo[e]pyrimido[5,4-b][1,4]diazepin-6(11H)-one] | 43 | 100 | 100
CCOc1cc(C(=O)N2CCC(N3CCN(C)CC3)CC2)ccc1Nc1ncc2c(n1)N(C1CCCC1)c1ccccc1C(=O)N2C [Compound 26] | 95 | 100 | 100
COc1cc(C(=O)N2CCC(N3CCN(C)CC3)CC2)ccc1Nc1ncc2c(n1)N1CCc3cccc(c31)C(=O)N2C [Compound 24] | 0.2 | 76 | 56
COc1cc(C(=O)N2CCC(N3CCN(C)CC3)CC2)ccc1Nc1ncc2c(n1)N(C)c1ccccc1C(=O)N2C [15 (LRRK2-IN-1)] | 0.7 | 99 | 76
